Numbers after ± are expanded uncertainties.
Assays:
[1] = 101 kPa, Liquid
[2] = xn = mol fraction of the nth substance listed; conditions: 283.15 K; 101 kPa; Liquid; x2 = 0

mass density ([1]; 283.15 K) [kg/m3] | mass density ([1]; 288.15 K) [kg/m3] | mass density ([1]; 293.15 K) [kg/m3] | mass density ([1]; 298.15 K) [kg/m3] | mass density ([1]; 303.15 K) [kg/m3] | mass density [2] [kg/m3] | SMILES
865.36 ± 0.82 | 860.63 ± 0.83 | 855.715 ± 0.84 | 851.018 ± 0.86 | 846.075 ± 0.87 |  | CCOCCCN [3-ethoxy-1-propanamine]
 |  |  |  |  | 999.699 ± 0.3 | O [water] + CCOCCCN

— the NIST ThermoML archive (doi:10.1021/je3003578)
